Assay results reported in PMC9223764, “In Vitro Selection and Characterization of HIV-1 Variants with Increased Resistance to LP-40, Enfuvirtide-Based Lipopeptide Inhibitor” (International Journal of Molecular Sciences, 2022).
Where “and” joins values, the source holds several entries; their conditions need not be identical. Identical values can stand only once. Where a SMILES comes first, the peptide text is derived from it. The star is where a group is joined. Palmitoyl = CCCCCCCCCCCCCCCC(=O)*

Tests used:
Format in all cases: cell-based
[1] = test system: HIV-1 NL4-3 gp41 A21T pseudovirus; details: Table 2; for IC50: A21T, TZM-bl cells, 48 h, luciferase, mean ± SD, triplicate, repeated three times
Experimental: (§1) The entry abilities of A15V, L57H, R68G, G86D, C87Y, E119G, and N140S were almost completely lost, corresponding to LP40-V6, LP40-V7, T20-V9, LP40-V3, LP40-V5, LP40-V4, and T20-V5, respectively, so it was determined that these mutation sites might be lethal mutations. […] The differences between the wild-type envelope proteins and serial mutant proteins in mediating membrane fusion were compared using a double-separated protein-based fusion experimental system. […] G20V, A21T, E119G, and Y127H had only an approximately 10% fusion capacity, and L33S, N42D, N42T, and N43S had less than 50% fusion capacity, but N140S had approximately 60% fusion capacity (Figure 6B). […] Among them, we selected the fusion ability of the sixth hour to evaluate the fusion activities of the mutant strains (Figure 6B).
(§2) Viral RNA was extracted from the supernatant, and, after reverse transcription, the cDNA was amplified using PCR. These amplified DNA were connected to the T-Easy vector and transformed to Trans 2-Blue Chemically Competent Cells. These sequences were determined via sequencing. The expression plasmids, which contained different HIV-1NL4-3 Env mutants, were constructed using DNA assembly (NEBuilder® HiFi DNA Assembly Master Mix). In brief, two primers were used to amplify Env, and the other two primers were used to amplify the vector fragment. The products of PCR were purified with a 20–25 bp overlap in the terminal of Env and the vector fragment Env and the vector fragment were added to the DNA assembly master mix at […] for 15 min and then transformed to Trans 2-Blue Chemically Competent Cells. Additionally, a single-point mutation was generated using double-stranded DNA templates and a selection of mutants with a restriction enzyme (DpnI) as described previously. The successful mutations were confirmed via sequencing.
(§3) The infectivity of HIV Env mutants and the inhibitory activities of membrane fusion inhibitors on mutants in TZM-bl cells were measured using a single-cycle infection assay as described previously. Briefly, the HIV pseudovirus was packed using an Env-coding plasmid, and pSG3ΔEnv was co-transfected into HEK293T cells. pSG3ΔEnv encodes an Env-defective, luciferase-expressing HIV-1 genome. After the pseudoviruses were harvested and filtrated, the amount of pseudoviruses was fixed via P24 antigen, and their infectivity was determined in TZM-bl cells. In order to measure the inhibitory activities of the inhibitors, inhibitors diluted serially 3-fold were mixed with an equal volume of pseudoviruses, and then 100 µL 1 × 10^5/mL TZM-bl cells were added to the mixture and incubated at 37 °C with 5% CO2 for 48 h. After that, TZM-bl cells were lysed using reporter lysis buffer, and IC50 values were calculated according to luciferase activity measured by luciferase assay reagents and a luminescence counter (Promega, Madison, WI, USA).

[2] = test system: HIV-1 NL4-3 gp41 A50V pseudovirus; details: Table 2; for IC50: A50V, TZM-bl cells, 48 h, luciferase, mean ± SD, triplicate, repeated three times
Experimental: as §1, §2, §3

[3] = test system: HIV-1 NL4-3 gp41 A71V pseudovirus; details: Table 2; for IC50: A71V, TZM-bl cells, 48 h, luciferase, mean ± SD, triplicate, repeated three times
Experimental: as §1, §2, §3

[4] = test system: HIV-1 NL4-3 gp41 D36G pseudovirus; details: Table 2; for IC50: D36G, TZM-bl cells, 48 h, luciferase, mean ± SD, triplicate, repeated three times
Experimental: as §1, §2, §3

[5] = test system: HIV-1 NL4-3 gp41 E137K pseudovirus; details: Table 2; for IC50: E137K, TZM-bl cells, 48 h, luciferase, mean ± SD, triplicate, repeated three times
Experimental: as §1, §2, §3

[6] = test system: HIV-1 NL4-3 gp41 G20V pseudovirus; details: Table 2; for IC50: G20V, TZM-bl cells, 48 h, luciferase, mean ± SD, triplicate, repeated three times
Experimental: as §1, §2, §3

[7] = test system: HIV-1 NL4-3 gp41 N126K pseudovirus; details: Table 2; for IC50: N126K, TZM-bl cells, 48 h, luciferase, mean ± SD, triplicate, repeated three times
Experimental: as §1, §2, §3

[8] = test system: HIV-1 NL4-3 gp41 N42D pseudovirus; details: Table 2; for IC50: N42D, TZM-bl cells, 48 h, luciferase, mean ± SD, triplicate, repeated three times
Experimental: as §1, §2, §3

[9] = test system: HIV-1 NL4-3 gp41 N42T pseudovirus; details: Table 2; for IC50: N42T, TZM-bl cells, 48 h, luciferase, mean ± SD, triplicate, repeated three times
Experimental: as §1, §2, §3

[10] = test system: HIV-1 NL4-3 gp41 N43S pseudovirus; details: Table 2; for IC50: N43S, TZM-bl cells, 48 h, luciferase, mean ± SD, triplicate, repeated three times
Experimental: as §1, §2, §3

[11] = test system: HIV-1 NL4-3 gp41 S129N pseudovirus; details: Table 2; for IC50: S129N, TZM-bl cells, 48 h, luciferase, mean ± SD, triplicate, repeated three times
Experimental: as §1, §2, §3

[12] = test system: HIV-1 NL4-3 gp41 S35P pseudovirus; details: Table 2; for IC50: S35P, TZM-bl cells, 48 h, luciferase, mean ± SD, triplicate, repeated three times
Experimental: as §1, §2, §3

[13] = test system: HIV-1 NL4-3 gp41 V38A pseudovirus; details: Table 2; for IC50: V38A, TZM-bl cells, 48 h, luciferase, mean ± SD, triplicate, repeated three times
Experimental: as §1, §2, §3

[14] = test system: HIV-1 NL4-3 gp41 V38T pseudovirus; details: Table 2; for IC50: V38T, TZM-bl cells, 48 h, luciferase, mean ± SD, triplicate, repeated three times
Experimental: as §1, §2, §3

[15] = test system: HIV-1 NL4-3 gp41 Y127H pseudovirus; details: Table 2; for IC50: Y127H, TZM-bl cells, 48 h, luciferase, mean ± SD, triplicate, repeated three times
Experimental: as §1, §2, §3

Compound	IC50 [1] [nM]	IC50 [2] [nM]	IC50 [3] [nM]	IC50 [4] [nM]	IC50 [5] [nM]	IC50 [6] [nM]	IC50 [7] [nM]	IC50 [8] [nM]	IC50 [9] [nM]	IC50 [10] [nM]	IC50 [11] [nM]	IC50 [12] [nM]	IC50 [13] [nM]	IC50 [14] [nM]	IC50 [15] [nM]	also measured
Enfuvirtide	58.9 ± 9.24	162 ± 69.4	46.5 ± 12.5	6 ± 1.68	68.5 ± 20.1	49.1 ± 10.9	117 ± 37.4	164 ± 26.8	413 ± 82	540 ± 91.9	70.3 ± 19.8	138 ± 10.6	1540 ± 22	991 ± 216	23.7 ± 2.63	–
CCCCCCCCCCCCCCCC(=O)NCCCC[C@H](NC(=O)[C@H](CC(=O)O)NC(=O)[C@H](CC(C)C)NC(=O)[C@H](CCC(=O)O)NC(=O)[C@H](CC(C)C)NC(=O)[C@H](CC(C)C)NC(=O)[C@H](CCC(=O)O)NC(=O)[C@H](CCC(N)=O)NC(=O)[C@H](CCC(=O)O)NC(=O)[C@H](CC(N)=O)NC(=O)[C@H](CCCCN)NC(=O)[C@H](CCC(=O)O)NC(=O)[C@H](CCC(N)=O)NC(=O)[C@H](CCC(N)=O)NC(=O)[C@H](CC(N)=O)NC(=O)[C@H](CCC(N)=O)NC(=O)[C@H](CO)NC(=O)[C@H](CCC(=O)O)NC(=O)[C@H](CCC(=O)O)NC(=O)[C@@H](NC(=O)[C@H](CC(C)C)NC(=O)[C@H](CO)NC(=O)[C@H](Cc1c[nH]cn1)NC(=O)[C@@H](NC(=O)[C@H](CC(C)C)NC(=O)[C@H](CO)NC(=O)[C@@H](NC(=O)[C@H](Cc1ccc(O)cc1)NC(C)=O)[C@@H](C)O)[C@@H](C)CC)[C@@H](C)CC)C(N)=O [LP-40] (Ac-YTSLIHSLIEESQNQQEKNEQELLELDK(Palmitoyl)-NH2)	26.8 ± 8.36	58.8 ± 13.7	43.2 ± 8.19	2.22 ± 0.57	42.6 ± 11.7	205 ± 47.2	304 ± 50.5	109 ± 18.4	1270 ± 167	357 ± 117	34 ± 10	21.6 ± 5.15	3490 ± 423	1450 ± 237	5.74 ± 1.86	Fold change in IC50 ([1]; A21T relative to WT NL4-3): 0.85 fold; Fold change in IC50 ([2]; A50V relative to WT NL4-3): 1.87 fold; Fold change in IC50 ([3]; A71V relative to WT NL4-3): 1.37 fold; Fold change in IC50 ([4]; D36G relative to WT NL4-3): 0.07 fold; Fold change in IC50 ([5]; E137K relative to WT NL4-3): 1.35 fold; Fold change in IC50 ([6]; G20V relative to WT NL4-3): 6.5 fold and 6.49 fold; Fold change in IC50 ([7]; N126K relative to WT NL4-3): 9.7 fold and 9.65 fold; Fold change in IC50 ([8]; N42D relative to WT NL4-3): 3.46 fold; Fold change in IC50 ([9]; N42T relative to WT NL4-3): 40.18 fold; Fold change in IC50 ([10]; N43S relative to WT NL4-3): 11.31 fold; Fold change in IC50 ([11]; S129N relative to WT NL4-3): 1.08 fold; Fold change in IC50 ([12]; S35P relative to WT NL4-3): 0.69 fold; Fold change in IC50 ([13]; V38A relative to WT NL4-3): 110.56 fold; Fold change in IC50 ([14]; V38T relative to WT NL4-3): 46.03 fold; Fold change in IC50 ([15]; Y127H relative to WT NL4-3): 0.18 fold
